From US8338141B2, “Methionine recovery processes” (Novus International, Inc., priority 2003, dated 2012)
Converted amounts (≈) assume the structure as drawn. Where two headings read alike, the source gives them in different places.

Tests used:
[1] = 25° C., Merck Index 12th Edition 1996; cited from earlier work
[2] = soluble methionine concentration in the filtrate of L-methionine-supplemented fermentation broth slurry, by HPLC after centrifugation and filtration
Experimental: (§1) The pH of the slurry was measured to be 5.54. A well-mixed sample of this slurry was drawn, and solids removed from the sample by centrifugation followed by filtration.
(§2) From a well-mixed sample of this slurry, solids were removed as before by centrifugation and filtration. […] At this point, the whole cells were separated from the methionine and fermentation solubles by centrifugation.
(§3) Methionine was added to the fermentation broth at a concentration of 56 g/L. In addition to soluble methionine, the slurry had insoluble methionine, microbial cells and components of fermentation media. 50% NaOH was added to the slurry at a concentration equal to 0.5 eq. weight of methionine. […] A sample of the slurry was removed and filtered as previously described.
(§4) Methionine was added to fermentation broth at a concentration of 77 g/L. The slurry was then heated to 70° C. without pH adjustment. This slurry was then filtered through a 0.45 micron filter in a heated filtration unit to remove the whole cells and other insoluble fermentation broth components. The filtrate was collected and analyzed for methionine.
(§5) Concentrated sulfuric acid (H2SO4, 96% w/w) was added in a concentration equal to 1 equivalent weight of methionine to the slurry, lowering the pH of the slurry to 2.49. Methionine concentration was measured from a sample after centrifugation and filtration as previously described.
(§6) H2SO4 (96% w/w) at a concentration of 1 equivalent weight of methionine was added to this slurry, decreasing the pH of the broth to 2.39.

physchem = conditions: thermodynamic from solid
Experimental: as §1, §2, §3, §4, §5, §6

[3] = for concentration of methionine remaining in the supernatant (mother liquor): buffer, 18 h
Experimental: To the cell free broth containing the solubilized L-methionine, sulfuric acid (96% w/w) was added and its pH lowered to […], the isoelectric point of L-methionine. […] The slurry was then stored overnight at 4° C. to allow for precipitation of the crystals. The slurry was then centrifuged to collect the methionine crystals.
At pH of 1.68, cells from the slurried fermenter broth were separated first by centrifugation followed by filtration through a 0.45 micron filter. The pH of the filtrate was then raised to 5.75, the isoelectric point of methionine by addition of 50% NaOH, resulting in formation of L-methionine crystals. The slurry was placed in a refrigerator at 4° C. for 18 hours to allow for additional crystallization of methionine. The crystals were then removed by centrifugation and filtration and further dried on a lyophilizer. The dried crystals were harvested from the lyophilizer. […] Crystals were collected by centrifugation at 4° C. by using a pre-chilled centrifuge.
For optimal recovery of methionine, solids from the acidified slurry above were removed by centrifugation and filtration and the pH of the recovered filtrate was raised to 5.6 using NaOH. […] This solution was placed again in the refrigerator at 4° C. for 18 hours to allow for formation of additional methionine crystals. Crystals formed after 18 hours at 4° C. were filtered and dried in a lyophilizer.

| SMILES | water solubility [1] [mg/mL] | solubility of methionine in fermentation broth ([2]; 22° C., no pH adjustment) [mg/mL] | solubility of methionine in the solution versus pH 9.36 ([2]; NaOH 2 equivalent weight, pH 10.22) | solubility of L-methionine versus lower NaOH levels ([2]; NaOH 2.5 equivalent weight, pH 12.53) | concentration of methionine in the filtrate ([2]; slurry with 56 g/L methionine, NaOH 1 eq weight, pH 9.38) [µg/mL] | additional methionine solubilized ([2]; slurry with 56 g/L methionine, NaOH 1.5, 2 and 2.5 eq wt, pH 9.82, 10.47 and 12.23) | concentration of methionine in the filtrate ([2]; slurry with 77 g/L methionine, heated to 70° C., no pH adjustment, 0.45 micron filter) [µg/mL] | solubility (physchem; 22 °C, pH 5.54, plasma or biological fluid) [mg/mL] | solubility (physchem; pH 2.39, plasma or biological fluid) [mg/mL] | solubility (physchem; pH 2.49, plasma or biological fluid) [mg/mL] | solubility (physchem; pH 8.92, plasma or biological fluid) [mg/mL] | solubility (physchem; pH 9.36, plasma or biological fluid) [mg/mL] | concentration of methionine remaining in the supernatant (mother liquor) ([3]; pH 5.6) [µg/mL] | concentration of methionine remaining in the supernatant (mother liquor) ([3]; pH 5.75) [µg/mL] | concentration of methionine remaining in the supernatant ([3]; pH 5.95) [µg/mL] |
| --- | --- | --- | --- | --- | --- | --- | --- | --- | --- | --- | --- | --- | --- | --- | --- |
| CSCCC(N)C(=O)O (racemic) [DL-methionine] | 33.81 (≈ 227 mM) | – | – | – | – | – | – | – | – | – | – | – | – | – | – |
| CSCC[C@H](N)C(=O)O [L-methionine] | – | 38 | unchanged | did not further increase | 56000 | No additional methionine was solubilized | 74600 | 38 (≈ 255 mM) | 55 (≈ 369 mM) | 75 (≈ 503 mM) | 58 (≈ 389 mM) | 78 (≈ 523 mM) | 39500 | 47200 | 33000 |
